Source: US10125138B2, “Triazolotriazinone derivatives having activity a s herbicides” (Syngenta Participations AG, priority 2015, dated 2018)

Tests used:
Type in all cases: in vivo
Conditions in all cases: 1000 g/h, evaluated after 13 days, five point scale
Lolium perenne (LOLPE) [1] = assay: Pre-emergence glasshouse herbicide test, Lolium perenne
Solanum nigrum (SOLNI) [2] = assay: Post-emergence glasshouse herbicide test, Solanum nigrum
Procedure, shortened: (§1)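 Percentage damage, read 13 days after spraying, is reported on a five-point scale (5=80-100%; 4=60-79%; 3=40-59%; 2=20-39%; 1=0-19%). Application: 1000 g/h in acetone/water 50:50 with 0.5% Tween 20, one day (pre) or 8 days (post) after sowing in pots.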

Setaria faberi (SETFA) [3] = assay: Pre-emergence glasshouse herbicide test, Setaria faberi
[4] = test system: Echinochloa crus-galli (ECHCG); assay: Pre-emergence glasshouse herbicide test, Echinochloa crus-galli
Solanum nigrum (SOLNI) [5] = assay: Pre-emergence glasshouse herbicide test, Solanum nigrum
Procedure, shortened: as §1

[6] = test system: Amaranthus retoflexus (AMARE); assay: Post-emergence glasshouse herbicide test, Amaranthus retoflexus
[7] = test system: Amaranthus retoflexus (AMARE); assay: Pre-emergence glasshouse herbicide test, Amaranthus retoflexus
Lolium perenne (LOLPE) [8] = assay: Post-emergence glasshouse herbicide test, Lolium perenne
[9] = test system: Ipomoea hederacea (IPOHE); assay: Post-emergence glasshouse herbicide test, Ipomoea hederacea
[10] = test system: Ipomoea hederacea (IPOHE); assay: Pre-emergence glasshouse herbicide test, Ipomoea hederacea
Setaria faberi (SETFA) [11] = assay: Post-emergence glasshouse herbicide test, Setaria faberi
[12] = test system: Echinochloa crus-galli (ECHCG); assay: Post-emergence glasshouse herbicide test, Echinochloa crus-galli

Row | Compound | percentage damage caused to the plant, PRE Application LOLPE (Lolium perenne (LOLPE) [1]) | percentage damage caused to the plant, POST Application SOLNI (Solanum nigrum (SOLNI) [2]) | percentage damage caused to the plant, PRE Application SETFA (Setaria faberi (SETFA) [3]) | percentage damage caused to the plant, PRE Application ECHCG [4] | percentage damage caused to the plant, PRE Application SOLNI (Solanum nigrum (SOLNI) [5]) | percentage damage caused to the plant, POST Application AMARE [6] | percentage damage caused to the plant, PRE Application AMARE [7] | percentage damage caused to the plant, POST Application LOLPE (Lolium perenne (LOLPE) [8]) | percentage damage caused to the plant, POST Application IPOHE [9] | percentage damage caused to the plant, PRE Application IPOHE [10] | percentage damage caused to the plant, POST Application SETFA (Setaria faberi (SETFA) [11]) | percentage damage caused to the plant, POST Application ECHCG [12]
1 | Cn1nnnc1NC(=O)c1nn2cnn(-c3ccccc3)c2nc1=O [Compound 1.001] | 3 (3=40-59%) | 5 (5=80-100%) | 5 (5=80-100%) | 5 (5=80-100%) | 5 (5=80-100%) | 5 (5=80-100%) | 5 (5=80-100%) | 3 (3=40-59%) | 5 (5=80-100%) | 4 (4=60-79%) | 5 (5=80-100%) | 5 (5=80-100%)
2 | CCn1nnnc1NC(=O)c1nn2cnn(-c3ccc(F)cc3)c2nc1=O [Compound 1.037] | 4 (4=60-79%) | 5 (5=80-100%) | 5 (5=80-100%) | 5 (5=80-100%) | 5 (5=80-100%) | 5 (5=80-100%) | 5 (5=80-100%) | 4 (4=60-79%) | 4 (4=60-79%) | 5 (5=80-100%) | 5 (5=80-100%) | 5 (5=80-100%)
